Results on 2 compounds are retold here after patent publication EP0167385B1, “Antiviral compounds, treatment and formulations” (THE WELLCOME FOUNDATION LIMITED, priority 1984, dated 1986).

The nature of data set [1]: toxicity in mice after administration by gavage. The following applies: 44.5 mg per kg by gavage, suspension in 5% Tween 80, 28 male CD-1 mice. The class given is in vivo. The protocol: The compound of formula (II) was administered to 28 male CD-1 mice by gavage. The dose was 44.5 mg per kg of body weight and was in suspension in 5% Tween 80 at a concentration of 5 mg/ml.

A short description of data set [2]: urine levels after oral administration, mice. The following applies: compared with oral administration of the compound of formula (I) itself. Type of data set: in vivo.
Data set [3] in a line: urine levels after oral administration, rats. Type of data set: in vivo. The following applies: compared with oral administration of the compound of formula (I) itself.
In another data set the test system is human CMV. The experiment in a line: plaque reduction assay in human foreskin fibroblast monolayers. Type of data set: cell-based. The following applies: for EC50: Human betaherpesvirus 5, Fibroblast, 192 h, Human Foreskin Fibroblasts, 8 days, read-out: ED₅₀. The protocol:
Confluent monolayers of human diploid fibroblast cells (i.e., human foreskin fibroblast cells) were infected with 200-300 µL of a suspension containing 50-100 human CMV infectious virions per culture well and allowed to incubate for 90 minutes at 37 degrees C in a CO₂ incubator. Unadsorbed virus was then removed by aspiration and appropriate concentrations of 1-[2-hydroxy-1-(hydroxymethyl)ethoxymethyl] cytosine were added in Eagle's Minimal Essential Media containing 2% fetal calf serum in an agarose overlay (0.6%). The assay plates were incubated at 37 degrees C in a CO₂ incubator for 8 days to allow plaque development. The monolayers were then fixed with 10% formalin in phosphate buffered saline and stained wth 0.8% crystal violet. The plaques were counted at 3x magnification using a Bausch and Lomb dissecting microscope, and the data were analysed by SAS Probit (SAS Institute, Inc., Cary, N.C., U.S.A.) to give the following results: […]

A further data set concerns Epstein-Barr Virus (EBV). The experiment in a line: EBV-specific cRNA-DNA hybridization, EBV genome equivalents in P3HR-1 cells. The class given is cell-based. Here is the method: 1-[2-Hydroxy-1-(hydroxymethyl)ethoxymethyl]cytosine was assayed for activity against Epstein-Barr Virus (EBV) using an adaptaion of the procedure described in Nature New Biology, 233, 103-106 (1971). This technique, employing an EBV-specific cRNA-DNA hybridization on filter membranes, detects the amount of EBV genome equivalents produced in the virus-producing cell lines. In this assay the EBV-producing cell line […]-1 (ATCC HTB 62) was exposed to various concentrations of 1-[2-hydroxy-1-(hydroxymethyl)-ethoxymethyl]cytosine for 14 days and EBV genome equivalents per cell were then determined to give an ED50 of approximately 0.05 μM.

The subject of another data set is VZV. The experiment in a line: antiviral test against VZV. To be noted: antiviral tests, general statement.
The subject of the next data set is HSV-1. The following applies: concentrations up to 100 ug; Ogilvy et al, Nucleosides and Nucleotides (1983); cited from earlier work.
Where [4] appears, read: antiviral tests, general statement.

Structures are written as SMILES. Like-named read-outs stand apart in the source and are kept apart here.

For `CC(C)(C)C(=O)OCC(COC(=O)C(C)(C)C)OCn1ccc(N)nc1=O` [compound of formula (II), 2-[(4-Amino-1,2-dihydro-2-oxo-1-pyrimidinyl)methoxy]-1,3-propanediyl Dipivalate], the signs of toxicity result in data set [1] is reported as “No signs of toxicity were observed”. Further, the “body fluid levels of the compound of formula (I), as demonstrated by urine levels” value in data set [2] and in data set [3] was “substantially higher” throughout.
As for `Nc1ccn(COC(CO)CO)c(=O)n1` [1-[2-Hydroxy-1-(hydroxymethyl)ethoxymethyl]cytosine], the EC50 was 3700 ± 700 nM in the data set with human CMV (Virus Strain ATCC VR-538 (strain AD169)); 1900 ± 200 nM in the data set with human CMV (Virus Strain Kerr); about 50 nM in the data set on Epstein-Barr Virus (EBV) (human gammaherpesvirus 4, 336 h, P3HR-1 (ATCC HTB 62) cells exposed for 14 days, read-out: ED₅₀ (EBV genome equivalents per cell)). Further, the “activity against CMV” value in the data set on human CMV (setting [4]) is reported as “surprisingly good activity”. Moreover, the “activity against EBV” value with Epstein-Barr Virus (EBV) (setting [4]) is listed as “surprisingly good activity”. For the same compound, the “activity against VZV” value with VZV is “surprisingly good activity”. In the data set with HSV-1, the “activity against HSV-1” value is “no activity”.
